We go through four molecules from patent US9902716B2, “Fluorinated benzofuranyl-pyrimidine derivatives containing a sulfone group” (Bayer Pharma Aktiengesellschaft, priority 2014, dated 2018).

One assay deals with T1, CDK2/CycE (Homo sapiens, UniProt P24941).
T1 construct: GST; purchased ProQinase GmbH (Freiburg, Germany); host or cells: insect cells (Sf9)
Kind of assay: CDK2/CycE kinase assay (Method 2a, TR-FRET). The assay is classed as biochemical. The settings on record: 10 μM ATP. The text has this:
2a. CDK2/CycE Kinase Assay:
CDK2/CycE-inhibitory activity of compounds of the present invention was quantified employing the CDK2/CycE TR-FRET assay as described in the following paragraphs:
Recombinant fusion proteins of GST and human CDK2 and of GST and human CycE, expressed in insect cells (Sf9) and purified by Glutathion-Sepharose affinity chromatography, were purchased from ProQinase GmbH (Freiburg, Germany). As substrate for the kinase reaction biotinylated peptide biotin-Ttds-YISPLKSPYKISEG (C-terminus in amid form) was used which can be purchased e.g. form the company JERINI Peptide Technologies (Berlin, Germany).
For the assay 50 nl of a 100 fold concentrated solution of the test compound in DMSO was pipetted into a black low volume 384 well microtiter plate (Greiner Bio-One, Frickenhausen, Germany), 2 μl of a solution of CDK2/CycE in aqueous assay buffer [50 mM Tris/HCl pH 8.0, 10 mM MgCl2, 1.0 mM dithiothreitol, 0.1 mM sodium ortho-vanadate, 0.01% (v/v) Nonidet-P40 (Sigma)] were added and the mixture was incubated for 15 min at 22° C. to allow pre-binding of the test compounds to the enzyme before the start of the kinase reaction. Then the kinase reaction was started by the addition of 3 μl of a solution of adenosine-tri-phosphate (ATP, 16.7 μM=> final conc. in the 5 μl assay volume is 10 μM) and substrate (1.25 μM=> final conc. in the 5 μl assay volume is 0.75 μM) in assay buffer and the resulting mixture was incubated for a reaction time of 25 min at 22° C. […]
The resulting mixture was incubated 1 h at 22° C. to allow the formation of complex between the phosphorylated biotinylated peptide and the detection reagents. Subsequently the amount of phosphorylated substrate was evaluated by measurement of the resonance energy transfer from the Euchelate to the streptavidine-XL. Therefore, the fluorescence emissions at 620 nm and 665 nm after excitation at 350 nm was measured in a TR-FRET reader, e.g. a Rubystar (BMG Labtechnologies, Offenburg, Germany) or a Viewlux (Perkin-Elmer). […]

Another assay deals with HeLa cells. Kind of assay: Proliferation assay HeLa (Method 3, crystal violet). The assay is classed as cell-based. The settings on record: Homo sapiens, 96 h, 4 days incubation, read-out: Inhibition of HeLa cell proliferation IC50. The procedure: (§1) Cultivated tumour cells (HeLa, human cervical tumour cells, ATCC CCL-2; NCI-H460, human non-small cell lung carcinoma cells, ATCC HTB-177; A2780, human ovarian carcinoma cells, ECACC #93112519; DU 145, hormone-independent human prostate carcinoma cells, ATCC HTB-81; HeLa-MaTu-ADR, multidrug-resistant human cervical carcinoma cells, EPO-GmbH Berlin; Caco-2, human colorectal carcinoma cells, ATCC HTB-37; B16F10, mouse melanoma cells, ATCC CRL-6475) were plated at a density of 5,000 cells/well (DU145, HeLa-MaTu-ADR), 3,000 cells/well (NCI-H460, HeLa), 2,500 cells/well (A2780), 1,500 cells/well (Caco-2), or 1,000 cells/well (B16F10) in a 96-well multititer plate in 200 μL of their respective growth medium supplemented 10% fetal calf serum. After 24 hours, the cells of one plate (zero-point plate) were stained with crystal violet (see below), while the medium of the other plates was replaced by fresh culture medium (200 μl), to which the test substances were added in various concentrations (0 μM, as well as in the range of 0.001-10 μM; the final concentration of the solvent dimethyl sulfoxide was 0.5%). The cells were incubated for 4 days in the presence of test substances. Cell proliferation was determined by staining the cells with crystal violet: the cells were fixed by adding 20 μl/measuring point of an 11% glutaric aldehyde solution for 15 minutes at room temperature. After three washing cycles of the fixed cells with water, the plates were dried at room temperature. The cells were stained by adding 100 μl/measuring point of a 0.1% crystal violet solution (pH 3.0). After three washing cycles of the stained cells with water, the plates were dried at room temperature. The dye was dissolved by adding 100 μl/measuring point of a 10% acetic acid solution. The extinction was determined by photometry at a wavelength of 595 nm. The change of cell number, in percent, was calculated by normalization of the measured values to the extinction values of the zero-point plate (=0%) and the extinction of the untreated (0 μm) cells (=100%). The IC50 values (inhibitory concentration at 50% of maximal effect) were determined by means of a 4 parameter fit.

A further assay relates to HeLa-MaTu-ADR cells. The assay can be described thus: Proliferation assay HeLa-MaTu-ADR (Method 3, crystal violet). The assay is classed as cell-based. The settings on record: Homo sapiens, 96 h, 4 days incubation, read-out: Inhibition of HeLa-MaTu-ADR cell proliferation IC50. The procedure:
as §1

In a further assay the test system is Caco-2 cells. Kind of assay: Proliferation assay Caco-2 (Method 3, crystal violet). The settings on record: Homo sapiens, 96 h; Caco-2, 4 days incubation; read-out: Inhibition of Caco-2 cell proliferation IC50. The class given is cell-based. How it is done: as §1, with “The IC50 values (inhibitory concentration at 50% of maximal effect) were determined by means of a 4 parameter fit.” left out

Another assay concerns B16F10 cells. The assay can be described thus: Proliferation assay B16F10 (Method 3, crystal violet). The settings on record: Mus musculus, B16-F10, 96 h; B16F10, 4 days incubation; read-out: Inhibition of B16F10 cell proliferation IC50. The class given is cell-based. How it is done:
as §1

As for `CS(=O)(=O)Cc1cccc(Nc2ncc(F)c(-c3ccc(F)c4ccoc34)n2)c1` [Example 1, 5-Fluoro-4-(4-fluoro-1-benzofuran-7-yl)-N-{3-[(methylsulfonyl)methyl]-phenyl}pyrimidin-2-amine], the IC50 was 175 nM at CDK2/CycE; 270 nM in the assay on HeLa cells; 290 nM with HeLa-MaTu-ADR cells; 300 nM in the assay on Caco-2 cells; 390 nM with B16F10 cells.
As to `CCS(=O)(=O)Cc1cccc(Nc2ncc(F)c(-c3ccc(F)c4ccoc34)n2)c1` [Example 2, N-{3-[(Ethylsulfonyl)methyl]phenyl}-5-fluoro-4-(4-fluoro-1-benzofuran-7-yl)pyrimidin-2-amine], the IC50 against CDK2/CycE is 112 nM; in the assay with HeLa cells, 335 nM; in the assay on HeLa-MaTu-ADR cells, 100 nM; in the assay with B16F10 cells it was 100 nM.
As to `CS(=O)(=O)Cc1cc(F)cc(Nc2ncc(F)c(-c3ccc(F)c4ccoc34)n2)c1` [Example 3], the IC50 was determined as 100 nM in the assay with HeLa cells, 239 nM with HeLa-MaTu-ADR cells, 392 nM in the assay with Caco-2 cells and 245 nM with B16F10 cells.
Regarding `Cc1cc(CS(C)(=O)=O)cc(Nc2ncc(F)c(-c3ccc(F)c4ccoc34)n2)c1` [Example 4, 5-Fluoro-4-(4-fluoro-1-benzofuran-7-yl)-N-{3-methyl-5-[(methylsulfonyl)methyl]-phenyl}pyrimidin-2-amine], the IC50 on CDK2/CycE came to 57 nM; with HeLa cells it was 100 nM; in the assay on HeLa-MaTu-ADR cells it was 243 nM; with Caco-2 cells, 313 nM; in the assay with B16F10 cells, 242 nM.
